Experimental data published in patent US10376520B2, “Methods for the treatment of cardiovascular disorders” (Galapagos NV, priority 2015, dated 2019).

System: Subjects With Active Crohn's Disease
Assay: LDL determination, Study 5 (Crohn's disease)
Format: in vivo, human
Settings: for [LDL] Mean CFB - 10 weeks results / [LDL] Median CFB - 10 weeks results / [LDL] Mean CFB: 200 mg q.d.; for [LDL] Mean CFB: Study 5 10 weeks results
From the text: Double-Blind, Randomized, Placebo-Controlled, Multi-Centre Study to Investigate the Efficacy and Safety of Compound 1 in Subjects With Active Crohn's Disease With Evidence of Mucosal Ulceration.
This is a double-blind, randomized, placebo-controlled, multi-centre Phase 2 study to investigate the efficacy and safety of Compound 1 administered once daily for the treatment of active CD with evidence of mucosal ulceration. The pharmacokinetics (including a PK substudy) and pharmacodynamics of Compound 1 and metabolite in CD will also be characterised.
A total of 180 eligible subjects will be randomized to receive Compound 1 or placebo in addition to their stable background treatment (eg, corticosteroids, aminosalicylates, or CD-related antibiotics). The study will consist of 2 parts, with total treatment duration of 20 weeks. Randomization in Part 1 will be stratified according the subject's previous anti-TNF exposure/response, CRP level at Screening, and oral corticosteroid use at visit Day −1.
After the first 10 weeks of treatment in Part 1, patients will be re-randomized for Part 2 as shown in the diagram below and will be stratified according to the subject's clinical response, previous anti-TNF exposure/response, and oral corticosteroid use at visit Day −1.
The following assays were conducted at Eurofins Global Central Laboratory, Bergschot 71, 4817 PA Breda, The Netherlands, and at Quest Diagnostics, Clinical Trials, Quest House, 125-135 Staines Road, Hounslow, Middlesex, TW3 3JB, United Kingdom. The assays for Study 5 were performed at BARC Europe, 3B, Industrie Park, Zwijnaarde, B-9052 Ghent, Belgium.
The determination of [LDL]-cholesterol is made using an automated method taking advantage of the selective micellary solubilization of [LDL]-cholesterol by a nonionic detergent and the interaction of a sugar compound and lipoproteins (VLDL and chylomicrons).
When a detergent is included in the enzymatic method for cholesterol determination (cholesterol esterase, cholesterol oxidase coupling reaction), the relative reactivities of cholesterol in the lipoprotein fractions increase in this order: [HDL]<chylomicrons <VLDL <[LDL]. In the presence of Mg^2+, a sugar compound markedly reduces the enzymatic reaction of the cholesterol measurement in VLDL and chylomicrons. The combination of a sugar compound with detergent enables the selective determination of [LDL]-cholesterol in serum. (Friedewald et al., 1972; Rifai et al., 1992)
Homogeneous enzymatic colorimetric assay.
In the presence of peroxidase, the hydrogen peroxide generated reacts with 4-aminoantipyrine and Sodium N-(2-hydroxy-3-sulfopropyl)-3,5-dimethoxyaniline (HSDA) to form a purple-blue dye.
The color intensity of this dye is directly proportional to the cholesterol concentration and is measured photometrically.
Human serum and plasma samples [LDL] determination was done on a Roche/Hitachi Cobas c 701/702 system which automatically calculate the analyte concentration of each sample. Samples containing precipitates are centrifuged before performing the assay.

[1] = 200 mg q.d. week 0 to 10, to 100 mg q.d. week 10 to 20, week 16
[2] = 200 mg q.d. week 0 to 10, to 100 mg q.d. week 10 to 20, week 20
[3] = 200 mg q.d. week 0 to 10, to placebo week 10 to 20, week 2
[4] = 200 mg q.d. week 0 to 10, to placebo week 10 to 20, week 4
[5] = 200 mg q.d. week 0 to 10, to placebo week 10 to 20, week 6
[6] = 200 mg q.d. week 0 to 10, to placebo week 10 to 20, week 10
[7] = 200 mg q.d. week 0 to 10, to placebo week 10 to 20, week 12
[8] = 200 mg q.d. week 0 to 10, to placebo week 10 to 20, week 16
[9] = 200 mg q.d. week 0 to 10, to placebo week 10 to 20, week 20
[10] = continued 200 mg q.d. (N = 77), week 2
[11] = continued 200 mg q.d. (N = 77), week 4
[12] = continued 200 mg q.d. (N = 77), week 6
[13] = continued 200 mg q.d. (N = 77), week 10
[14] = continued 200 mg q.d. (N = 77), week 12
[15] = continued 200 mg q.d. (N = 77), week 16
[16] = continued 200 mg q.d. (N = 77), week 20
[17] = placebo week 0 to 10, then 100 mg q.d. (N = 22), week 12
[18] = placebo week 0 to 10, then 100 mg q.d. (N = 22), week 16
[19] = placebo week 0 to 10, then 100 mg q.d. (N = 22), week 20
[20] = placebo week 0 to 10, to 100 mg q.d. week 10 to 20, week 12
[21] = placebo week 0 to 10, to 100 mg q.d. week 10 to 20, week 16
[22] = placebo week 0 to 10, to 100 mg q.d. week 10 to 20, week 20

SMILES: O=C(Nc1nc2cccc(-c3ccc(CN4CCS(=O)(=O)CC4)cc3)n2n1)C1CC1 [Compound 1, cyclopropanecarboxylic acid {5-[4-(1,1-dioxo-thiomorpholin-4-ylmethyl)-phenyl]-[1,2,4]triazolo[1,5-a]pyridin-2yl}-amide]
- [LDL] Mean CFB - 20 weeks results [1]: 2.18%
- [LDL] Median CFB - 20 weeks results [1]: −1.36%
- [LDL] Mean CFB - 20 weeks results [2]: 2.73%
- [LDL] Median CFB - 20 weeks results [2]: 1.65%
- [LDL] Mean CFB - 20 weeks results [3]: 2.69%
- [LDL] Median CFB - 20 weeks results [3]: 0.71%
- [LDL] Mean CFB - 20 weeks results [4]: 1.85%
- [LDL] Median CFB - 20 weeks results [4]: 2.44%
- [LDL] Mean CFB - 20 weeks results [5]: 3.72%
- [LDL] Median CFB - 20 weeks results [5]: 3.51%
- [LDL] Mean CFB - 20 weeks results [6]: 4.43%
- [LDL] Median CFB - 20 weeks results [6]: 1.84%
- [LDL] Mean CFB - 20 weeks results [7]: 4.55%
- [LDL] Median CFB - 20 weeks results [7]: 6.33%
- [LDL] Mean CFB - 20 weeks results [8]: 10.32%
- [LDL] Median CFB - 20 weeks results [8]: 6.34%
- [LDL] Mean CFB - 20 weeks results [9]: 6.12%
- [LDL] Median CFB - 20 weeks results [9]: 5.24%
- [LDL] Mean CFB - 10 weeks results (week 2): 2.833%
- [LDL] Median CFB - 10 weeks results (week 2): −1.469%
- [LDL] Mean CFB - 10 weeks results (week 4): 1.997%
- [LDL] Median CFB - 10 weeks results (week 4): −1.986%
- [LDL] Mean CFB - 10 weeks results (week 6): 1.743%
- [LDL] Median CFB - 10 weeks results (week 6): 0.992%
- [LDL] Mean CFB - 10 weeks results (week 10): 10.126%
- [LDL] Median CFB - 10 weeks results (week 10): 6.299%
- [LDL] Mean CFB (week 2): 0.025 mmol/L
- [LDL] Mean CFB (week 4): -0.030 mmol/L
- [LDL] Mean CFB (week 6): -0.012 mmol/L
- [LDL] Mean CFB (week 10): 0.150 mmol/L
- [LDL] Mean CFB - 20 weeks results [10]: 0.04 mmol/L
- [LDL] Median CFB - 10 weeks results 20 weeks results [10]: -0.05 mmol/L
- [LDL] Mean CFB - 20 weeks results [11]: -0.05 mmol/L
- [LDL] Median CFB - 10 weeks results 20 weeks results [11]: -0.05 mmol/L
- [LDL] Mean CFB - 20 weeks results [12]: -0.05 mmol/L
- [LDL] Median CFB - 10 weeks results 20 weeks results [12]: -0.02 mmol/L
- [LDL] Mean CFB - 20 weeks results [13]: 0.20 mmol/L
- [LDL] Median CFB - 10 weeks results 20 weeks results [13]: 0.18 mmol/L
- [LDL] Mean CFB - 20 weeks results [14]: 0.14 mmol/L
- [LDL] Median CFB - 10 weeks results 20 weeks results [14]: 0.15 mmol/L
- [LDL] Mean CFB - 20 weeks results [15]: 0.21 mmol/L
- [LDL] Median CFB - 10 weeks results 20 weeks results [15]: 0.19 mmol/L
- [LDL] Mean CFB - 20 weeks results [16]: 0.22 mmol/L
- [LDL] Median CFB - 10 weeks results 20 weeks results [16]: 0.18 mmol/L
- [LDL] Mean CFB - 20 weeks results [17]: 0.09 mmol/L
- [LDL] Median CFB - 10 weeks results 20 weeks results [17]: 0.07 mmol/L
- [LDL] Mean CFB - 20 weeks results [18]: 0.05 mmol/L
- [LDL] Median CFB - 10 weeks results 20 weeks results [18]: -0.06 mmol/L
- [LDL] Mean CFB - 20 weeks results [19]: 0.06 mmol/L
- [LDL] Median CFB - 10 weeks results 20 weeks results [19]: 0.03 mmol/L
- [LDL] Mean CFB - 20 weeks results [20]: 4.07%
- [LDL] Median CFB - 20 weeks results [20]: 2.14%
- [LDL] Mean CFB - 20 weeks results [21]: 5.28%
- [LDL] Median CFB - 20 weeks results [21]: −2.00%
- [LDL] Mean CFB - 20 weeks results [22]: 7.29%
- [LDL] Median CFB - 20 weeks results [22]: 1.90%
